From patent US20150018237A1, “MEANS AND METHODS FOR ASSESSING BONE DISORDERS” (BASF SE, priority 2012, published 2015)
Where two headings read alike, the source gives them in different places. Marks after values point to notes of the source that are not given here.

Tests used:
rats [1] = settings: rat, in vivo
Method: (§1) A group of each 5 male and female rats was dosed once daily with the indicated compounds (see Table 10, below for compounds, applied doses and administeration details) over 28 days.
(§2) Each dose group in the studies consisted of five rats per sex. Additional groups of each 5 male and female animals served as controls. Before starting the treatment period, animals, which were 62-64 days old when supplied, were acclimatized to the housing and environmental conditions for 7 days. All animals of the animal population were kept under the same constant temperature (20-24±3° C.) and the same constant humidity (30-70%). The animals of the animal population were fed ad libitum. The food to be used was essentially free of chemical or microbial contaminants. Drinking water was also offered ad libitum. Accordingly, the water was free of chemical and microbial contaminants as laid down in the European Drinking Water Directive 98/83/EG. The illumination period was 12 hours light followed by 12 hours darkness (12 hours light, from 6:00 to 18:00, and 12 hours darkness, from 18:00 to 6:00). The studies were performed in an AAALAC-approved laboratory in accordance with the German Animal Welfare Act and the European Council Directive 86/609/EE. The test system was arranged according to the OECD 407 guideline for the testing of chemicals for repeated dose 28-day oral toxicity study in rodents.
(§3) In the morning of day 7, 14, and 28, blood was taken from the retroorbital venous plexus from fasted anaesthetized animals. From each animal, 1 ml of blood was collected with EDTA as anticoagulant. The samples were centrifuged for generation of plasma. All plasma samples were covered with a N2 atmosphere and then stored at −80° C. until analysis.
(§4) For mass spectrometry-based metabolite profiling analyses plasma samples were extracted and a polar and a non-polar (lipid) fraction was obtained. For GC-MS analysis, the non-polar fraction was treated with methanol under acidic conditions to yield the fatty acid methyl esters. Both fractions were further derivatised with O-methyl-hydroxyamine hydrochloride and pyridine to convert Oxo-groups to O-methyloximes and subsequently with a silylating agent before analysis. In LC-MS analysis, both fractions were reconstituted in appropriate solvent mixtures. HPLC was performed by gradient elution on reversed phase separation columns. Mass spectrometric detection which allows target and high sensitivity MRM (Multiple Reaction Monitoring) profiling in parallel to a full screen analysis was applied as described in WO2003073464.
(§5) Steroids and their metabolites were measured by online SPE-LC-MS (Solid phase extraction-LC-MS).
(§6) Following comprehensive analytical validation steps, the data for each analyte were normalized against data from pool samples. These samples were run in parallel through the whole process to account for process variability. The significance of treatment group values specific for sex, treatment duration and metabolite was determined by comparing means of the treated groups to the means of the respective untreated control groups using WELCH-test and quantified with treatment ratios versus control and p-values.

rats [2] = assay: Plasma metabolite profiling (GC-MS, LC-MS) in rats dosed once daily over 28 days, treatment ratios versus control
Method: as §1, §2, §3, §4, §5, §6

[3] = female rats, day 28, high dose, Table 1a up-regulation
[4] = female rats, day 28, high dose, Table 1b down-regulation
[5] = male rats, day 28, high dose, Table 1c up-regulation
[6] = male rats, day 28, high dose, Table 1d down-regulation

Molecule: O=C([O-])[O-].[Ca+2] [Calcium carbonate]
- 3-Hydroxybutyrate, plasma, ratio versus control (rats [1]): 1.09*
- 4-Hydroxyphenylpyruvate, plasma, ratio versus control (rats [1]): 0.23*
- 5-Oxoproline, plasma, ratio versus control (rats [1]): 0.87*
- 16-Methylheptadecanoic acid, plasma, ratio versus control (rats [1]): 0.66*
- 17-Methyloctadecanoic acid, plasma, ratio versus control (rats [1]): 0.92*
- Alanine, plasma, ratio versus control (rats [1]): 0.79*
- Coenzyme Q9, plasma, ratio versus control (rats [1]): 0.72*
- Creatine, plasma, ratio versus control (rats [1]): 0.48*
- Creatinine, plasma, ratio versus control (rats [1]): 0.43*
- DAG (C18:1, C18:2), plasma, ratio versus control (rats [1]): 0.87*
- Eicosaenoic acid (C20:1) No 02, plasma, ratio versus control (rats [1]): 1.3*
- Glucose, plasma, ratio versus control (rats [1]): 0.93*
- Glycerol, lipid fraction, plasma, ratio versus control (rats [1]): 0.66*
- Heptadecanoic acid (C17:0), plasma, ratio versus control (rats [1]): 0.76*
- Hippuric acid, plasma, ratio versus control (rats [1]): 0.71*
- Lactate, plasma, ratio versus control (rats [1]): 0.95*
- Linoleic acid (C18:cis[9, 12]2), plasma, ratio versus control (rats [1]): 0.67*
- Linolenic acid (C18:cis[9, 12, 15]3), plasma, ratio versus control (rats [1]): 0.81*
- Lysophosphatidylcholine (C17:0), plasma, ratio versus control (rats [1]): 0.82*
- Malate, plasma, ratio versus control (rats [1]): 0.54*
- Phenylalanine, plasma, ratio versus control (rats [1]): 0.93*
- Phosphatidylcholine (C16:0, C16:0), plasma, ratio versus control (rats [1]): 1.06*
- Phosphatidylcholine (C18:0, C20:4), plasma, ratio versus control (rats [1]): 1.02*
- Pyruvate, plasma, ratio versus control (rats [1]): 0.77*
- Sphingomyelin (d18:2, C16:0), plasma, ratio versus control (rats [1]): 1.11*
- TAG (C18:1, C18:2), plasma, ratio versus control (rats [1]): 0.75*
- TAG (C18:2, C18:2), plasma, ratio versus control (rats [1]): 0.74*
- TAG (C18:2, C18:3), plasma, ratio versus control (rats [1]): 0.64*
- TAG (DAG-Fragment), plasma, ratio versus control (rats [1]): 0.72*
- TAG No 01, plasma, ratio versus control (rats [1]): 0.55*
- TAG No 05, plasma, ratio versus control (rats [1]): 0.71*
- TAG No 07, plasma, ratio versus control (rats [1]): 0.71*
- TAG No 059, plasma, ratio versus control (rats [1]): 0.68*
- Threonic acid, plasma, ratio versus control (rats [1]): 0.86*
- Urea, plasma, ratio versus control (rats [1]): 1.15*
- gamma-Linolenic acid (C18:cis[6, 9, 12]3), plasma, ratio versus control (rats [1]): 0.7*

Molecule: [O-][Cl+3]([O-])([O-])O [Sodium perchlorate]
- Isoleucine, plasma, ratio versus control (rats [2]; male rats, day 7, high dose, Table 2a up-regulation): 0.97
- Isoleucine, plasma, ratio versus control (rats [2]; male rats, day 28, high dose, Table 2a up-regulation): 1.37 *
- Isoleucine, plasma, ratio versus control (rats [2]; male rats, day 28, high dose, Table 2c up-regulation): 1.37*

Molecule: Calcitonin (Salmon)
- 3-Hydroxybutyrate, plasma, ratio versus control (rats [2]; [3]): 1.32*
- Coenzyme Q10, plasma, ratio versus control (rats [2]; [3]): 1.03*
- Eicosaenoic acid (C20:1) No 02, plasma, ratio versus control (rats [2]; [3]): 3.35*
- Phosphate (inorganic and organic phosphates), plasma, ratio versus control (rats [2]; [3]): 1.31*
- Phosphatidylcholine (C18:0, C20:4), plasma, ratio versus control (rats [2]; [3]): 1.05*
- Sphingomyelin (d18:2, C16:0), plasma, ratio versus control (rats [2]; [3]): 1.11*
- Urea, plasma, ratio versus control (rats [2]; [3]): 1.36*
- myo-Inositol-2-phosphate, plasma, ratio versus control (rats [2]; [3]): 1.27*
- 4-Hydroxyphenylpyruvate, plasma, ratio versus control (rats [2]; [4]): 0.63*
- 18-Hydroxy-11-deoxycorticosterone, plasma, ratio versus control (rats [2]; [4]): 0.85*
- Alanine, plasma, ratio versus control (rats [2]; [4]): 0.75*
- Creatine, plasma, ratio versus control (rats [2]; [4]): 0.92*
- Creatinine, plasma, ratio versus control (rats [2]; [4]): 0.58*
- Glucose, plasma, ratio versus control (rats [2]; [4]): 0.95*
- Lysophosphatidylcholine (C17:0), plasma, ratio versus control (rats [2]; [4]): 0.91*
- Methionine, plasma, ratio versus control (rats [2]; [4]): 0.85*
- Phenylalanine, plasma, ratio versus control (rats [2]; [4]): 0.88*
- Threonic acid, plasma, ratio versus control (rats [2]; [4]): 0.75*
- Glycine, plasma, ratio versus control (rats [2]; [5]): 0.86
- Phosphate (inorganic and organic phosphates), plasma, ratio versus control (rats [2]; [5]): 1.35*
- Phosphatidylcholine (C16:0, C16:0), plasma, ratio versus control (rats [2]; [5]): 1.24*
- myo-Inositol-2-phosphate, plasma, ratio versus control (rats [2]; [5]): 1.41*
- 5-Oxoproline, plasma, ratio versus control (rats [2]; [6]): 0.94*
- 16-Methylheptadecanoic acid, plasma, ratio versus control (rats [2]; [6]): 0.59*
- 17-Methyloctadecanoic acid, plasma, ratio versus control (rats [2]; [6]): 0.65*
- 18-Hydroxy-11-deoxycorticosterone, plasma, ratio versus control (rats [2]; [6]): 0.24*
- Alanine, plasma, ratio versus control (rats [2]; [6]): 0.78*
- Coenzyme Q9, plasma, ratio versus control (rats [2]; [6]): 0.83*
- Coenzyme Q10, plasma, ratio versus control (rats [2]; [6]): 0.74*
- DAG (C18:1, C18:2), plasma, ratio versus control (rats [2]; [6]): 0.63*
- Glycerol, lipid fraction, plasma, ratio versus control (rats [2]; [6]): 0.86*
- Glycine, plasma, ratio versus control (rats [2]; [6]): 0.86*
- Heptadecanoic acid (C17:0), plasma, ratio versus control (rats [2]; [6]): 0.77*
- Hippuric acid, plasma, ratio versus control (rats [2]; [6]): 0.48*
- Lactate, plasma, ratio versus control (rats [2]; [6]): 0.7*
- Linoleic acid (C18:cis[9, 12]2), plasma, ratio versus control (rats [2]; [6]): 0.82*
- Linolenic acid (C18:cis[9, 12, 15]3), plasma, ratio versus control (rats [2]; [6]): 0.61*
- Malate, plasma, ratio versus control (rats [2]; [6]): 0.8*
- Methionine, plasma, ratio versus control (rats [2]; [6]): 0.88*
- Pyruvate, plasma, ratio versus control (rats [2]; [6]): 0.76*
- TAG (C18:1, C18:2), plasma, ratio versus control (rats [2]; [6]): 0.7*
- TAG (C18:2, C18:2), plasma, ratio versus control (rats [2]; [6]): 0.6*
- TAG (C18:2, C18:3), plasma, ratio versus control (rats [2]; [6]): 0.78*
- TAG (DAG-Fragment), plasma, ratio versus control (rats [2]; [6]): 0.7*
- TAG No 01, plasma, ratio versus control (rats [2]; [6]): 0.66*
- TAG No 05, plasma, ratio versus control (rats [2]; [6]): 0.68*
- TAG No 07, plasma, ratio versus control (rats [2]; [6]): 0.78*
- TAG No 059, plasma, ratio versus control (rats [2]; [6]): 0.65*
- gamma-Linolenic acid (C18:cis[6, 9, 12]3), plasma, ratio versus control (rats [2]; [6]): 0.98
